Results published in US7462600B2, “Macrolides” (Pfizer Inc, priority 2004, dated 2008).
In brackets after ≈: the same amount, converted by molar mass. Where two headings read alike, the source gives them in different places.

Columns and labels:
Assay type in all cases: cell-based
[1] = tested on: Streptococcus pneumoniae 1095; conditions: microtiter broth dilution
Summary of the method: (§1)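 Microtiter broth dilution; interpretation per NCCLS M100-S14; endpoint = MIC. Stock: 40 mg/ml in DMSO.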

[2] = tested on: Streptococcus pneumoniae 1175; conditions: microtiter broth dilution
Summary of the method: as §1

[3] = tested on: Streptococcus pneumoniae 1016; assay: MIC, microtiter broth dilution (NCCLS M100-S14), S. pneumoniae 1016 (susceptible)
Summary of the method: as §1

[4] = tested on: Streptococcus pyogenes 1079; assay: MIC, microtiter broth dilution (NCCLS M100-S14), S. pyogenes 1079 (ermB)
Summary of the method: as §1

[5] = tested on: Haemophilus influenzae 1218; assay: MIC, microtiter broth dilution (NCCLS M100-S14), H. influenzae 1218 (susceptible)
Summary of the method: as §1

[6] = S. pneumoniae 1016 (susceptible)
[7] = H. influenzae 1218 (susceptible)

Row | Molecule | MIC S. pneumo. 1095 ([1]; S. pneumoniae 1095 (ermB)) [µg/mL] | MIC S. pneumo. 1175 ([2]; S. pneumoniae 1175 (mefA)) [µg/mL] | MIC S. pneumo. 1016 [3, 6] [µg/mL] | MIC S. pyogenes 1079 ([4]; S. pyogenes 1079 (ermB)) [µg/mL] | MIC H. influenzae 1218 [5, 7] [µg/mL] | MIC S. pneumo. 1095 ([1]; Streptococcus pneumoniae 1095) [µg/mL] | MIC S. pneumo. 1175 ([2]; Streptococcus pneumoniae 1175) [µg/mL] | MIC S. pneumo. 1016 ([3]; Streptococcus pneumoniae 1016) [µg/mL] | MIC S. pyogenes 1079 ([4]; Streptococcus pyogenes 1079) [µg/mL] | MIC H. influenzae 1218 ([5]; Haemophilus influenzae 1218) [µg/mL]
1 | CCC1OC(=O)C(C)C(=O)C(C)C(OC2OC(C)CC(N(C)C)C2O)C(C)(OC)CC(C)C(=O)C(C)C2N(C3CCN(Cc4cccc5cnccc45)C3)C(=O)OC12C [Example 9.07, 3-descladinosyl-11,12-dideoxy-6-O-methyl-3-oxo-12,11-(oxycarbonyl-(1-((isoquinolin-5-yl)-methyl)-(R)-pyrrolidin-3-yl)-imino)erythromycin A] | <0.06 | 0.12 (≈ 0.146 µM) | <0.06 | 2 (≈ 2.43 µM) | 1 (≈ 1.22 µM) |  |  |  |  | 
2 | CCC1OC(=O)C(C)C(=O)C(C)C(OC2OC(C)CC(N(C)C)C2O)C(C)(OC)CC(C)C(=O)C(C)C2N(C3CN(S(=O)(=O)c4ccc5cnsc5c4)C3)C(=O)OC12C (stereo not shown) [Example 3.104, 3-descladinosyl-11,12-dideoxy-6-O-methyl-3-oxo-12,11-(oxycarbonyl-(1-(benzo[d]isothiazole-6-sulfonyl)-azetidin-3-yl)-imino)-erythromycin A] |  |  |  |  |  | <0.063 | <0.063 | <0.063 | 1 (≈ 1.16 µM) | <0.063
3 | CCC1OC(=O)C(C)C(=O)C(C)C(OC2OC(C)CC(N(C)C)C2O)C(C)(OC)CC(C)C(=O)C(C)C2N(CC3CCCN3C(=O)c3ccc4ncccc4c3)C(=O)OC12C (stereo not shown) [12.06] | 0.25 (≈ 0.294 µM) | 1 (≈ 1.18 µM) | <0.06 | >64.00 | 2 (≈ 2.35 µM) |  |  |  |  | 
4 | 3-descladinosyl-11,12-dideoxy-6-O-methyl-3-oxo-12,11-(oxycarbonyl-(1-((isoquinolin-4-yl)-methyl)-azetidin-3-yl)-imino)-erythromycin A [Example 1.30] |  |  |  |  |  | <0.06 | <0.06 | <0.06 | 4 | 1
5 | CCC1OC(=O)C(C)C(=O)C(C)C(OC2OC(C)CC(N(C)C)C2O)C(C)(OC)CC(C)C(=O)C(C)C2N(C3CN(S(=O)(=O)c4cnc5ccccn45)C3)C(=O)OC12C (stereo not shown) [Example 3.15, 3-descladinosyl-11,12-dideoxy-6-O-methyl-3-oxo-12,11-(oxycarbonyl-(1-(H-imidazo[1,2-a]pyridine-3-sulfonyl)-azetidin-3-yl)-imino)-erythromycin A] |  |  |  |  |  | <0.06 | <0.06 | <0.06 | 1 (≈ 1.18 µM) | 0.25 (≈ 0.295 µM)
6 | CCC1OC(=O)C(C)C(=O)C(C)C(OC2OC(C)CC(N(C)C)C2O)C(C)(OC)CC(C)C(=O)C(C)C2N(C3CN(S(=O)(=O)c4ccc5c(cnn5C)c4)C3)C(=O)OC12C (stereo not shown) [Example 3.94, 3-descladinosyl-11,12-dideoxy-6-O-methyl-3-oxo-12,11-(oxycarbonyl-(1-(1-methyl-1H-indazole-5-sulfonyl)-azetidin-3-yl)-imino)erythromycin A] |  |  |  |  |  | 0.12 (≈ 0.139 µM) | <0.06 | <0.06 | 0.25 (≈ 0.29 µM) | 0.25 (≈ 0.29 µM)
7 | CCC1OC(=O)C(C)C(=O)C(C)C(OC2OC(C)CC(N(C)C)C2O)C(C)(OC)CC(C)C(=O)C(C)C2N(CC3CCN(Cc4c[nH]c5ncccc45)C3)C(=O)OC12C [Example 11.05, 3-descladinosyl-11,12-dideoxy-6-O-methyl-3-oxo-12,11-(oxycarbonyl-(1-((1H-pyrrolo[2,3-b]pyridin-3-yl)-methyl)-((S)-pyrrolidin-3-yl)-methyl)-imino)-erythromycin A] | <0.06 | 0.5 (≈ 0.605 µM) | <0.06 | 4 (≈ 4.84 µM) | 0.5 (≈ 0.605 µM) |  |  |  |  | 
8 | CCC1OC(=O)C(C)C(=O)C(C)C(OC2OC(C)CC(N(C)C)C2O)C(C)(OC)CC(C)C(=O)C(C)C2N(CC3CN(C(=O)c4cncc5ccccc45)C3)C(=O)OC12C.O=CO (stereo not shown) [4.47] |  |  |  |  |  | 0.19 | 0.12 | <0.06 | >64.00 | 0.75
9 | CC[C@H]1OC(=O)[C@H](C)C(=O)[C@H](C)[C@@H](O[C@@H]2O[C@H](C)C[C@H](N(C)C)[C@H]2O)[C@](C)(OC)C[C@@H](C)C(=O)[C@H](C)[C@H]2N(CC3(O)CN(C(=O)c4cc5cccnc5[nH]4)C3)C(=O)O[C@]12C [7.26] | 0.12 (≈ 0.143 µM) | 0.25 (≈ 0.297 µM) | <0.06 | >64.00 | 0.5 (≈ 0.594 µM) |  |  |  |  | 
10 | CCC1OC(=O)C(C)C(=O)C(C)C(OC2OC(C)CC(N(C)C)C2O)C(C)(OC)CC(C)C(=O)C(C)C2N(CC3CCN(Cc4c[nH]c5cnccc45)C3)C(=O)OC12C (stereo not shown) [13.03] | 1 (≈ 1.21 µM) | 4 (≈ 4.84 µM) | <0.06 | >64.00 | 2 (≈ 2.42 µM) |  |  |  |  | 
11 | CCC1OC(=O)C(C)C(=O)C(C)C(OC2OC(C)CC(N(C)C)C2O)C(C)(OC)CC(C)C(=O)C(C)C2N(CC3C4CN(C(=O)OC(C)(C)C)CC43)C(=O)OC12C (stereo not shown) [16.01] | 50 (≈ 61.9 µM) | 25 (≈ 30.9 µM) | 0.25 (≈ 0.309 µM) | >100.00 | 1.56 (≈ 1.93 µM) |  |  |  |  | 
12 | CCC1OC(=O)C(C)C(=O)C(C)C(OC2OC(C)CC(N(C)C)C2O)C(C)(OC)CC(C)C(=O)C(C)C2N(C3CN(S(=O)(=O)c4ccc(-n5nccn5)cc4)C3)C(=O)OC12C (stereo not shown) [Example 3.55, 3-descladinosyl-11,12-dideoxy-4-O-methyl-3-oxo-12,11-(oxycarbonyl-(1-(4-(2H-1,2,3-triazol-2-yl)benzenesulfonyl)-azetidin-3-yl)-imino)erythromycin A] |  |  |  |  |  | <0.06 | <0.06 | <0.06 | <0.06 | 1 (≈ 1.14 µM)
13 | CC[C@H]1OC(=O)[C@H](C)C(=O)[C@H](C)[C@@H](O[C@@H]2O[C@H](C)C[C@H](N(C)C)[C@H]2O)[C@](C)(OC)C[C@@H](C)C(=O)[C@H](C)[C@H]2N(CC3(O)CN(C(=O)c4cccc5ncccc45)C3)C(=O)O[C@]12C [7.19] | 0.12 (≈ 0.141 µM) | 0.25 (≈ 0.293 µM) | <0.06 | >64.00 | 1 (≈ 1.17 µM) |  |  |  |  | 
14 | CCC1OC(=O)C(C)C(=O)C(C)C(OC2OC(C)CC(N(C)C)C2O)C(C)(OC)CC(C)C(=O)C(C)C2N(C3CN(Cc4c(C)cnc5ncccc45)C3)C(=O)OC12C (stereo not shown) [Example 1.99, 3-descladinosyl-11,12-dideoxy-6-O-methyl-3-oxo-12,11-(oxycarbonyl-(1-(3-methyl-1,8-naphthyridine-4-methyl)-azetidin-3-yl)-imino)-erythromycin A] |  |  |  |  |  | <0.063 | <0.063 | <0.063 | 0.5 (≈ 0.607 µM) | 1 (≈ 1.21 µM)
